Experimental data: patent publication US8846949B2, “Pyrrolopyrazoles as N-type calcium channel blockers” (Janssen Pharmaceutica NV, priority 2012, dated 2014)

Molecular target: T1, N-type calcium channel α1B (Cav2.2), β3 and α2δ subunits (Homo sapiens, UniProt Q00975)
T1 construct: expressed in transfected cells
Assay: Functional assay, antagonism of N-type calcium channel (FDSS calcium mobilization response to KCl depolarization)
Assay type: cell-based
Conditions: for inhibition at 0.33 µM: 0.33 μM compound; for inhibition at 0.33 µM / inhibition at 1 µM: FDSS, 50 mM KCl; for IC50: HEK stable cell line, 50 mM KCl depolarization, six-point concentration-response; for inhibition at 1 µM: 1 μM compound
Procedure: A stable cell line (HEK parent) co-expressing the α1B (Cav2.2), β3 and α2δ subunits of the N-type calcium channel subunits was used. These cells were routinely grown as monolayers in low glucose-containing Dulbecco's Modified Eagle Medium supplemented with 10% FBS, 2 mM L-glutamine, 100 I.U./mL penicillin, 100 μg/mL streptomycin, 400 μg/mL G418 and 200 μg/mL Zeocin (split ratio=1:5). Cells were maintained in 5% CO2 at 37° C. Compounds of Formula (I) were prepared as 10 mM stocks in DMSO from neat compound, if available. Otherwise, the 5 or 10 mM DMSO stock solutions provided in-house were used.
Calcium mobilization responses to KCl depolarization were evaluated by measuring the intensity of calcium-mediated fluorescent signal in the presence of BD Calcium Assay Dye (BD Biosciences, Franklin Lakes, N.J., U.S.A.), utilizing a Functional Drug Screening System (FDSS) by Hamamatsu Corporation (Bridgewater, N.J. U.S.A.).
Twenty-four hr prior to assay, cells were seeded in clear-base poly-D-lysine-coated 384-well plates (BD Biosciences) at a density of 5,000 cells per well in culture medium and grown overnight in 5% CO2 at 37° C. On the day of assay, growth media were removed, and cells were loaded with BD calcium assay dye (BD Biosciences) for 35 min at 37° C. under 5% CO2 and then for 25 min at room temp. Utilizing the FDSS, cells were exposed to representative compounds of Formula (I) at varying concentrations, and intracellular calcium was measured for 5 min prior to the addition of 50 mM KCl for an additional 3 min of measurement.
IC50 values for representative compounds of Formula (I) were determined from six-point concentration-response experiments and represent the concentration of said compound required to inhibit 50% of the maximal response. Maximal fluorescence intensity (FI) achieved upon addition of 50 mM KCl was exported from the FDSS software and further analyzed using GraphPad Prism 3.02 (Graph Pad Software Inc., San Diego, Calif., U.S.A.). Data were normalized to the maximum average counts from quadruplicate wells for each condition in the presence of 50 mM KCl and to the minimum average counts in the presence of buffer. Theoretical curves were generated using nonlinear regression curve-fitting analysis of either sigmoidal concentration-response or sigmoidal concentration-response (variable slope), and the IC50 values with the best-fit curve determined by GraphPad Prism were reported.

T1 sequence (Q00975 whole entry): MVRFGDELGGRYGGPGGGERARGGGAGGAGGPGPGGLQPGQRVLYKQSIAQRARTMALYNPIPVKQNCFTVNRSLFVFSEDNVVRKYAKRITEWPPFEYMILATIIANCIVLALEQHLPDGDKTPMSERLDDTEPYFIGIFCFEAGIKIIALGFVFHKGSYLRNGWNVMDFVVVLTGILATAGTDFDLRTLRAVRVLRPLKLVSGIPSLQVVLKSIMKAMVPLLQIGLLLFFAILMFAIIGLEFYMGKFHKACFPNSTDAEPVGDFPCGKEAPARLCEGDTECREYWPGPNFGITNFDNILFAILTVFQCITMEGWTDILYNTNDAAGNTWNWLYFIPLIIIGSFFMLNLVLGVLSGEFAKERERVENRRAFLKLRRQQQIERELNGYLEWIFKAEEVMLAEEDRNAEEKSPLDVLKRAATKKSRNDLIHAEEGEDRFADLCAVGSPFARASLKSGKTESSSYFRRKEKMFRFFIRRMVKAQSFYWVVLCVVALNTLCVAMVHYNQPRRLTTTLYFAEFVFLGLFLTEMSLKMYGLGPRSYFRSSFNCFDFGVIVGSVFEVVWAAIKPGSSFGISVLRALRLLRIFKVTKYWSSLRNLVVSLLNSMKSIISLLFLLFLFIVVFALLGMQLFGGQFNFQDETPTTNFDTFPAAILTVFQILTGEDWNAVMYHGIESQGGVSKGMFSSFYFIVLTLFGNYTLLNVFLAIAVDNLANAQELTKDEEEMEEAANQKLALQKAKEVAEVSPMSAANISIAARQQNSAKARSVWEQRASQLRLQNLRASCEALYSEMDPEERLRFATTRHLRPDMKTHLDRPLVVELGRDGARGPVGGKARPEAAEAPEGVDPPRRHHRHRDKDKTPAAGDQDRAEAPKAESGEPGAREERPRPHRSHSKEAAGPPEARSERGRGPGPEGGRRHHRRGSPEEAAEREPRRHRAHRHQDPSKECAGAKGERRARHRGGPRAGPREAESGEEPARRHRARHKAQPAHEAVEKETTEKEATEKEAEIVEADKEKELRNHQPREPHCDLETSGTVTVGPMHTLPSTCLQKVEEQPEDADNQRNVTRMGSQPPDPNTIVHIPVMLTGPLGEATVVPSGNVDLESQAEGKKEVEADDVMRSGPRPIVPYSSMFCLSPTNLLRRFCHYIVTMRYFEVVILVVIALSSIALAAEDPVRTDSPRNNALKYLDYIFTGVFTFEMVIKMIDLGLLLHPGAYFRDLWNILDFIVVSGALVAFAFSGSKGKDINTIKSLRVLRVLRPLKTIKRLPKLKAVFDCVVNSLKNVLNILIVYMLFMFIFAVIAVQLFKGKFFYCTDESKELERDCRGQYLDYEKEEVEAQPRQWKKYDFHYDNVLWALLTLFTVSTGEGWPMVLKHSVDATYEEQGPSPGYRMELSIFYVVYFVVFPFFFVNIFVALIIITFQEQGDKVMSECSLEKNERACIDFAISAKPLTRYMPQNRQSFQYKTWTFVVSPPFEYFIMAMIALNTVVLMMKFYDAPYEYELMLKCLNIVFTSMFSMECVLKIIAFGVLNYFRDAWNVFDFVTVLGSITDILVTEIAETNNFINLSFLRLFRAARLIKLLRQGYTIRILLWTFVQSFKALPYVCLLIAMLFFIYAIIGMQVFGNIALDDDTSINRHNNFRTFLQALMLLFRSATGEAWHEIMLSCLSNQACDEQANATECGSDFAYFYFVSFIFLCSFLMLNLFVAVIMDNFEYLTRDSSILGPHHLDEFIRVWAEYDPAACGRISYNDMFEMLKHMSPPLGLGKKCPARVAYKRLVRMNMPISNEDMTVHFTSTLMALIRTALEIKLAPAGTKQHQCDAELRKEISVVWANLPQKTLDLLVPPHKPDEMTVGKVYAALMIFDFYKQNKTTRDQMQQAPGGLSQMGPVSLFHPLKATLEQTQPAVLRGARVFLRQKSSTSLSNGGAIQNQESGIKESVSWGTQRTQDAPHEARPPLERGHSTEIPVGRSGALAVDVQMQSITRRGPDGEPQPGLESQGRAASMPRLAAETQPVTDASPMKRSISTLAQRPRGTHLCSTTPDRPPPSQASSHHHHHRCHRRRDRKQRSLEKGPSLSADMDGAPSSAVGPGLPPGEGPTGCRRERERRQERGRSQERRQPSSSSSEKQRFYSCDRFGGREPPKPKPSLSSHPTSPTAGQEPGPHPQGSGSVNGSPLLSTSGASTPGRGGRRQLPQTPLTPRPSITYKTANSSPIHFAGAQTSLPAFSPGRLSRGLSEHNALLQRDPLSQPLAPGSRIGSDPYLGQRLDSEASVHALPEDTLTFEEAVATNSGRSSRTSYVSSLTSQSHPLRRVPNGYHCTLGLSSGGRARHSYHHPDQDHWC
T1 sequence (P54284 whole entry partner): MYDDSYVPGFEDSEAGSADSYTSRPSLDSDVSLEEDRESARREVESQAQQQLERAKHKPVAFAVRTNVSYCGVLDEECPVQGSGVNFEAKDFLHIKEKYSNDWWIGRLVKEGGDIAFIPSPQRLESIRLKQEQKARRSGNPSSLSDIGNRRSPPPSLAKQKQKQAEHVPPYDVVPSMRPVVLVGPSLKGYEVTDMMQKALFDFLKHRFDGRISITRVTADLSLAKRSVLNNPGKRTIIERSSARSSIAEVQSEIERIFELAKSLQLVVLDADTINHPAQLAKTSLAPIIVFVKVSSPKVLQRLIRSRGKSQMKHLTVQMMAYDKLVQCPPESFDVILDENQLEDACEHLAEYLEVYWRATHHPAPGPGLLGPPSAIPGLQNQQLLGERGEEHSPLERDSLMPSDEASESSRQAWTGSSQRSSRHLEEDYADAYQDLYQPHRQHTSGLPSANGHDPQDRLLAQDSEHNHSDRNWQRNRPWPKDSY
T1 sequence (P54289 25-956 partner limits assumed): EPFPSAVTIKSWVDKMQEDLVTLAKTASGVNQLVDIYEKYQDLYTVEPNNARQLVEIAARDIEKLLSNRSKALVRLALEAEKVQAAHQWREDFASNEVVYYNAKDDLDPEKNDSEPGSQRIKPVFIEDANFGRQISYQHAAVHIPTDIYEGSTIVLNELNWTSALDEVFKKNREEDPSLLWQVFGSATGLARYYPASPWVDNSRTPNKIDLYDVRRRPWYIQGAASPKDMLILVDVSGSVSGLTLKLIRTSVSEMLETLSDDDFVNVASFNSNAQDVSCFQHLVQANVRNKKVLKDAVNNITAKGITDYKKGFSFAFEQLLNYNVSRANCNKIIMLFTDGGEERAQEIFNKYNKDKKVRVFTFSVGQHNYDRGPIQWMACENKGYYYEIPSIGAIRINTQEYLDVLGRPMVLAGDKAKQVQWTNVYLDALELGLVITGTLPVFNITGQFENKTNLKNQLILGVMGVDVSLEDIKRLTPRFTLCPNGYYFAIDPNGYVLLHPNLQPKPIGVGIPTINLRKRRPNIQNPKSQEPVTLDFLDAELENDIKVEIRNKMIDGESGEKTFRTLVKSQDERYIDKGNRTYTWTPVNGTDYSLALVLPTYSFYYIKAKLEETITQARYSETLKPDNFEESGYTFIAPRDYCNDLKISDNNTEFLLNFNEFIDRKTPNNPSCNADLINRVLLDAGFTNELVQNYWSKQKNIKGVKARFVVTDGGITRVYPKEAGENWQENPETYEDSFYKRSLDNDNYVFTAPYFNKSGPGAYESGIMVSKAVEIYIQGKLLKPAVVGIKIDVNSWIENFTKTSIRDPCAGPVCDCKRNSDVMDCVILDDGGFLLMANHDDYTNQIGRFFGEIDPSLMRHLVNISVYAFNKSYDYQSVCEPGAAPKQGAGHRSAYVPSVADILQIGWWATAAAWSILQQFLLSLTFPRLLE
T1 sequence (P54289 957-1103 partner limits assumed): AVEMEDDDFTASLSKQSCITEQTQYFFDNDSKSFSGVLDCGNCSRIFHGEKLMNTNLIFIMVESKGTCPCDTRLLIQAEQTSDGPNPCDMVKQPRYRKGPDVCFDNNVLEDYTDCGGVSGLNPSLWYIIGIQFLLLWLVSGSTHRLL

Structure (SMILES)	inhibition at 0.33 µM	IC50	inhibition at 1 µM
COc1ccccc1-n1nc2c(c1-c1ccc(C)nc1)CN(S(=O)(=O)C(C)C)C2 [Cpd 94, 2-(2-Methoxyphenyl)-5-[(1-methylethyl)sulfonyl]-3-(6-methylpyridin-3-yl)-2,4,5,6-tetrahydropyrrolo[3,4-c]pyrazole]	46%		
COc1ccc(-n2nc3c(c2-c2ccc(Cl)cc2)CN(S(=O)(=O)C(C)C)C3)c(C)c1 [Cpd 67, 3-(4-Chlorophenyl)-2-(4-methoxy-2-methylphenyl)-5-[(1-methylethyl)sulfonyl]-2,4,5,6-tetrahydropyrrolo[3,4-c]pyrazole]	61%	190 nM	
CCc1ccccc1-n1nc2c(c1-c1ccc(Cl)cc1)CN(C(=O)OC(C)(C)C)C2 [Cpd 1, tert-Butyl 3-(4-chlorophenyl)-2-(2-ethylphenyl)-2,6-dihydropyrrolo[3,4-c]pyrazole-5(4H)-carboxylate]		180 nM	
O=S(=O)(NCCN1CCOCC1)c1ccc(N2Cc3nn(-c4ccccc4OC(F)(F)F)c(-c4ccc(Cl)cc4)c3C2)cc1 [Cpd 26, 4-[3-(4-Chlorophenyl)-2-[2-(trifluoromethoxy)phenyl]-2,6-dihydropyrrolo[3,4-c]pyrazol-5(4H)-yl]-N-(2-morpholin-4-ylethyl)benzenesulfonamide]			57%
COc1ccccc1-n1nc2c(c1-c1ccc(Cl)cc1)CN(S(=O)(=O)CCN1C(=O)CCC1=O)C2 [Cpd 42, 1-(2-{[3-(4-Chlorophenyl)-2-(2-methoxyphenyl)-2,6-dihydropyrrolo[3,4-c]pyrazol-5(4H)-yl]sulfonyl}ethyl)pyrrolidine-2,5-dione]		48 nM	
N#Cc1ccc(N2Cc3nn(-c4ccccc4OC(F)(F)F)c(-c4ccc(Cl)cc4)c3C2)cc1 [Cpd 25, 4-[3-(4-Chlorophenyl)-2-[2-(trifluoromethoxy)phenyl]-2,6-dihydropyrrolo[3,4-c]pyrazol-5(4H)-yl]benzonitrile]			57%
CC(C)(C)OC(=O)N1Cc2nn(-c3ccccc3C(F)(F)F)c(-c3ccc(Cl)cc3)c2C1 [Cpd 14, tert-Butyl 3-(4-chlorophenyl)-2-[2-(trifluoromethyl)phenyl]-2,6-dihydropyrrolo[3,4-c]pyrazole-5(4H)-carboxylate]			60%
COc1ccccc1-n1nc2c(c1-c1cnc3ccccc3c1)CN(S(=O)(=O)C(C)C)C2 [Cpd 93, 3-{2-(2-Methoxyphenyl)-5-[(1-methylethyl)sulfonyl]-2,4,5,6-tetrahydropyrrolo[3,4-c]pyrazol-3-yl}quinoline]		100 nM	
CCc1ccccc1-n1nc2c(c1-c1ccc(Cl)cc1)CN(S(=O)(=O)C(F)(F)F)C2 [Cpd 3, 3-(4-Chlorophenyl)-2-(2-ethylphenyl)-5-[(trifluoromethyl)sulfonyl]-2,4,5,6-tetrahydropyrrolo[3,4-c]pyrazole]		150 nM	
CC(C)(C)OC(=O)N1Cc2nn(-c3ccccc3OC(F)(F)F)c(-c3ccc(Cl)cc3)c2C1 [Cpd 19, tert-Butyl 3-(4-chlorophenyl)-2-[2-(trifluoromethoxy)phenyl]-2,6-dihydropyrrolo[3,4-c]pyrazole-5(4H)-carboxylate]		300 nM	
CCc1ccccc1-n1nc2c(c1-c1ccc(Cl)cc1)CN(C(=O)CNS(=O)(=O)C(F)(F)F)C2 [Cpd 13, N-{2-[3-(4-Chlorophenyl)-2-(2-ethylphenyl)-2,6-dihydropyrrolo[3,4-c]pyrazol-5(4H)-yl]-2-oxoethyl}-1,1,1-trifluoromethanesulfonamide]			59%
COc1ccc(-n2nc3c(c2-c2ccc(Cl)cc2)CN(S(C)(=O)=O)C3)c(C)c1 [Cpd 66, 3-(4-Chlorophenyl)-2-(4-methoxy-2-methylphenyl)-5-(methylsulfonyl)-2,4,5,6-tetrahydropyrrolo[3,4-c]pyrazole]	35%		
O=C(N1Cc2nn(-c3ccccc3OC(F)(F)F)c(-c3ccc(Cl)cc3)c2C1)C(F)(F)F [Cpd 21, 3-(4-Chlorophenyl)-5-(trifluoroacetyl)-2-[2-(trifluoromethoxy)phenyl]-2,4,5,6-tetrahydropyrrolo[3,4-c]pyrazole]		300 nM	
COc1ccccc1-n1nc2c(c1-c1ccc(Cl)cc1)CN(S(=O)(=O)Cc1ccccc1)C2 [Cpd 39, 5-(Benzylsulfonyl)-3-(4-chlorophenyl)-2-(2-methoxyphenyl)-2,4,5,6-tetrahydropyrrolo[3,4-c]pyrazole]		27 nM	
CN(C)S(=O)(=O)N1Cc2nn(-c3ccccc3OCC(F)(F)F)c(-c3ccc(Cl)cc3)c2C1 [Cpd 90, 3-(4-Chlorophenyl)-N,N-dimethyl-2-[2-(2,2,2-trifluoroethoxy)phenyl]-2,6-dihydropyrrolo[3,4-c]pyrazole-5(4H)-sulfonamide]	80%	85 nM	
COc1ccc(-n2nc3c(c2-c2ccc(Cl)cc2)CN(S(=O)(=O)N(C)C)C3)c(C)c1 [Cpd 69, 3-(4-Chlorophenyl)-2-(4-methoxy-2-methylphenyl)-N,N-dimethyl-2,6-dihydropyrrolo[3,4-c]pyrazole-5(4H)-sulfonamide]	69%	130 nM	
COc1ccccc1-n1nc2c(c1-c1ccc(Cl)cc1)CN(S(=O)(=O)CCOc1ccccc1)C2 [Cpd 43, 3-(4-Chlorophenyl)-2-(2-methoxyphenyl)-5-[(2-phenoxyethyl)sulfonyl]-2,4,5,6-tetrahydropyrrolo[3,4-c]pyrazole]		100 nM	
COc1cc(C)ccc1-n1nc2c(c1-c1ccc(Cl)cc1)CN(S(=O)(=O)C(C)C)C2 [Cpd 75, 3-(4-Chlorophenyl)-2-(2-methoxy-4-methylphenyl)-5-[(1-methylethyl)sulfonyl]-2,4,5,6-tetrahydropyrrolo[3,4-c]pyrazole]	93%	32 nM	
CCc1ccccc1-n1nc2c(c1-c1ccc(Cl)cc1)CN(C(=O)COC)C2 [Cpd 10, 3-(4-Chlorophenyl)-2-(2-ethylphenyl)-5-(methoxyacetyl)-2,4,5,6-tetrahydropyrrolo[3,4-c]pyrazole]		280 nM	
